The target in one series is T1, mGluR5 receptors (Homo sapiens, UniProt P41594).
T1 construct: expressed in transfected cells; host or cells: transiently or stably transfected cell lines (e.g., HEK293, COS, CHO, NIH3T3)
Kind of series: In vitro binding to glutamate receptors ([^3H]MPEP displacement, membranes of transfected cell lines). Particulars: mGluR5, radioligand [^3H]MPEP. On the procedure: The assay buffer is Standard Binding Buffer (50 mM Tris-HCl, 10 mM MgCl2, 0.1 mM EDTA, pH 7.4) and the membrane fraction source is transiently or stably transfected cell lines (e.g., HEK293, COS, CHO, NIH3T3)
Aliquots (50 μL) of radioligand are dispensed into the wells of a 96-well plate containing 100 μl of Standard Binding Buffer. Then, duplicate 50-μL aliquots of the test and reference compound dilutions are added.
The 250-4, reactions are incubated at room temperature and shielded from light (to prevent photolysis of light-sensitive ligands) for 1 hour, then harvested by rapid filtration onto Whatman GF/B glass fiber filters pre-soaked with 0.3% polyethyleneimine using a 96-well Brandel harvester. Four rapid 500-μL washes are performed with chilled Standard Binding Buffer to reduce non-specific binding. Filters are placed in 6-mL scintillation tubes and allowed to dry overnight. The next day, 4 mL of EcoScint scintillation cocktail (National Diagnostics) are added to each tube. The tubes are capped, labeled, and counted by liquid scintillation counting. […] The filter mats are dried, then scintillant is melted onto the filters and the radioactivity retained on the filters is counted in a Microbeta scintillation counter.
Raw data (dpm) representing total radioligand binding (i.e., specific+non-specific binding) are plotted as a function of the logarithm of the molar concentration of the competitor (i.e., test or reference compound).
Ki=IC50/(1+[ligand]/KD) (Eqn. 2)
where [ligand] equals the assay radioligand concentration and KD equals the affinity constant of the radioligand for the target receptor.

For series [1] the following is noted: rat; cited from earlier work.
The conditions of series [2]: monkey; cited from earlier work.
For series [3] the following is noted: human subjects; cited from earlier work.

pKi: −log10 of the molar value. Where two headings read alike, the source gives them in different places.

A word on the pKi: it is −log10 of the Ki, conventionally taken in molar units.

T1 sequence (P41594 21-1212): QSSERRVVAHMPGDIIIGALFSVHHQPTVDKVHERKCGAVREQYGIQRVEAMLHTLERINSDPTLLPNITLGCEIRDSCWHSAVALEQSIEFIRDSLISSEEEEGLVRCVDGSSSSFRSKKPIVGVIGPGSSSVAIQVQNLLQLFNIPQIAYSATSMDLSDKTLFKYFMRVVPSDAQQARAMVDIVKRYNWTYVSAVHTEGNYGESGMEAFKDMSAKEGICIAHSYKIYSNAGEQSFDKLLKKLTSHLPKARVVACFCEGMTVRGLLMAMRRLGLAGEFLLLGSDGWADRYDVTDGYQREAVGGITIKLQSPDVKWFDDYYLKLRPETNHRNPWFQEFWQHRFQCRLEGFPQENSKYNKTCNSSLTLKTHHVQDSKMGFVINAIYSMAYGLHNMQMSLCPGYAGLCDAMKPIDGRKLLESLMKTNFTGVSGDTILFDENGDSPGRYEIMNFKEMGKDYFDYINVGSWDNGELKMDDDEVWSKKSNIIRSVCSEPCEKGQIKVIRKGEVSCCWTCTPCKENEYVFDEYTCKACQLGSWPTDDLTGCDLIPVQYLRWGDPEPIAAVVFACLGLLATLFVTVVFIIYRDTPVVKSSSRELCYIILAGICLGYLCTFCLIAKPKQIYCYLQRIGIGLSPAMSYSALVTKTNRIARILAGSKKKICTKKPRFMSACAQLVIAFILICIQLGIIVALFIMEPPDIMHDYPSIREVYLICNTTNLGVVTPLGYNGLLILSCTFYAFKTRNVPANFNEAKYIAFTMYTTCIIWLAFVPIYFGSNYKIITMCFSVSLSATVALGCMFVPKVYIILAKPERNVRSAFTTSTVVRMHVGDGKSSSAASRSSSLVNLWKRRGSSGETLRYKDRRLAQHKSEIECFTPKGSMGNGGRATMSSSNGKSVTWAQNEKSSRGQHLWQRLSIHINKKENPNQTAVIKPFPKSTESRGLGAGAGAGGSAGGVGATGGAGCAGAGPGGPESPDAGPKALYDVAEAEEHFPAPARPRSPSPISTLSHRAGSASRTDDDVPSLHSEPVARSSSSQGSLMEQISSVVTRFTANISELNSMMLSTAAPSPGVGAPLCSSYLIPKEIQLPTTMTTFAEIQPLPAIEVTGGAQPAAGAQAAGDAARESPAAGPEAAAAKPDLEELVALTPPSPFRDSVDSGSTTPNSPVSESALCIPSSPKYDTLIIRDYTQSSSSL

`Fc1nc(C#Cc2ccccc2)cs1` [Compound 12, 2-fluoro-4-(phenylethynyl)thiazole] showed a pKi at mGluR5 receptors greater than 6.82. Take `N#Cc1cccc(C#Cc2csc(F)n2)c1` [Compound 13, (5-((2-fluorothiazol-4-yl)ethynyl)benzonitrile)]: the negative logarithm of the Ki (pKi) at mGluR5 receptors is greater than 7.30.

On to `N#Cc1cc(F)cc(C#Cc2csc(F)n2)c1` [Compound 14, 3-fluoro-5-((2-fluorothiazol-4-yl)ethynyl)benzonitrile], for which the negative logarithm of the Ki (pKi) at mGluR5 receptors is greater than 7.30. At mGluR5 receptors, `COc1cccc(C#Cc2csc(F)n2)c1` [Compound 15] gave a negative-log Ki (pKi) greater than 7.30. With `N#CCc1cccc(C#Cc2csc(F)n2)c1` [Compound 16], the pKi on mGluR5 receptors is greater than 7.30. Regarding `N#Cc1cc(F)cc(C#Cc2csc(C[18F])n2)c1` [[^18F]SP203, 3-fluoro-5-[[2-([^18F]fluoromethyl)thiazol-4-yl]ethynyl]benzonitrile], the defluorination entry is recorded as “rapidly defluorinated” in series [1], “rapidly defluorinated” in series [2] and “slower or negligible” in series [3].

The values are drawn from patent US20110098326A1, “2-FLUOROTHIAZOLE DERIVATIVES USEFUL AS IMAGING AGENTS; METHODS OF SYNTHESIS, AND METHODS OF USE” (priority 2009, published 2011).
